# In US7790762B2, “Compounds and methods for thiol-containing compound efflux and cancer treatment” (National Jewish Health, priority 2002, dated 2010):
# Read-outs that look alike come from different tables or passages of the source. Marks after values point to notes of the source that are not given here.
# Tests used:
# A549 cells [1] = assay: Intracellular GSH levels by HPLC-EC in A549 cells; format: cell-based, human; details: A549, 25 μM; for activity at 25 µM: Homo sapiens
# Method: (§1) Cell lines and culture conditions. Human lung epithelial cancer (A549), human leukemia HL-60 and human prostate (PC-3) tumor cells were purchased from ATCC (Manassas, Va.). A549 and PC-3 cells were grown in Ham's F12 medium (F12) and Kaighn's modification of Ham's F12 medium (F12K) with 2 mM L-glutamine (ATCC), respectively, supplemented with 10% fetal bovine serum (FBS) and 5% pen/strep (10,000 unit, Cellgro). HL-60 cells were grown in Iscove's modified Dulbecco's medium with 4 mM L-glutamine (ATCC) supplemented with 20% FBS and 5% pen/strep. Cell were grown in T-75 flask at 37° C. and 5% CO2 air atmosphere and in 24-well plates for GSH levels and LDH release measurements.
# (§2) Intracellular levels of GSH. Intracellular GSH levels can be determined by HPLC-EC. Cultured cells from 24-well plates were washed once with 1 ml of PBS and then re-suspended in 0.5 ml of distilled water with 40 μM of digitonin (2 mM stock solution in DMSO) for 30 min at room temperature. Then, 50 μl of 10% meta-phosphoric acid were added (1% final concentration), the samples were sonicated for 2 min, centrifuged at 20,000 g for 10 min, and 0.2 ml of supernatant placed in vials for HPLC analysis. […] The flow rate was […]. The retention time for GSH in these conditions was 7.5 min. The HPLC instrument was from ESA, Inc. (Chelmsford, Mass.), equipped with an autosampler (model 540) and a Coul array detector (model 5600A). The potential applied was +0.75 V vs. H/Pd electrode, and the injection volume 5 μl.
# HL-60 cells [2] = assay: Intracellular GSH levels by HPLC-EC in HL-60 cells; format: cell-based, human; details: 24 hours treatment; for activity at 25 µM: Homo sapiens, HL-60, 25 μM, read-out: Int. GSH % con.
# Method: as §1, §2
# PC-3 cells [3] = assay: Intracellular GSH levels by HPLC-EC in PC-3 cells; format: cell-based, human; details: PC-3, 25 μM, 24 hours treatment; for activity at 25 µM: Homo sapiens, read-out: Int. GSH % con.
# Method: as §1, §2
# A549 cells [4] = assay: Cytotoxicity as LDH release in A549 cells; format: cell-based, human; details: 48 hours treatment
# Method: as §1
# (§3) Assessment of cytotoxicity. In one exemplary method, membrane integrity of A549, HL-60 and PC-3 cells was used as an index of drug-induced cytotoxicity, and was assessed by monitoring the release of cytosolic lactate dehydrogenase (LDH). LDH activity was measured in the culture medium and cell lysates (50 mM HEPES, Triton X-100 0.5%, pH 7) using a plate reader format as previously described (41). Briefly, 5 μl of cell culture supernatant and lysates were incubated with 0.24 mM NADH in a Tris/NaCl pH 7.2 buffer in 96-well plates for 5 min at 25° C. The reaction was started by the addition of 9.8 mM pyruvate and the consumption of NADH followed at 340 nm for 5 min at 30° C. Percent LDH release was calculated by the following: (supernatant LDH/supernatant LDH+lysate LDH)×100.
# HL-60 cells [5] = assay: Cytotoxicity as LDH release in HL-60 cells; format: cell-based, human; details: 48 hours treatment
# Method: as §1, §3
# PC-3 cells [6] = assay: Cytotoxicity as LDH release in PC-3 cells; format: cell-based, human; details: 48 hours treatment
# Method: as §1, §3
# A549 cells [7] = assay: Extracellular GSH in culture supernatants of A549 cells (HPLC-FD, mBBr); format: cell-based, human; details: 25 μM, 2 hours of treatment (FIG. 19D)
# Method: Extracellular levels of GSH. Extracellular GSH in the culture media supernatants of A549, HL-60 and PC-3 cells were measured by an HPLC-FD method of GSH analysis after derivatization with monobromobimane (mBBr). […] The mixture was incubated in dark at room temperature for 30 min, and the reaction was stopped by addition of 10 μl of 70% perchloric acid. The samples were centrifuged at 16,000 g for 10 min and 0.18 ml of supernatant placed in vials for HPLC analysis. The HPLC column used was Synergi 4u Hydro-RP 80A (C18) (150×4.6 mm) from Phenomenex (Torrance, Calif.) and the mobile phase a mixture of 1% acetic acid in H2O (pH adjusted to 4.25 using NH4OH) with 7% acetonitrile. The flow rate was 1 ml·min^−1 and the injection volume 1 μl. The detector excitation and emission wavelengths were […], respectively. The retention time for the GSH derivative was 9.5 min.
# epithelial cells [8] = assay: Effects of compounds on extracellular GSH transport (Table 3); format: cell-based
# epithelial cells [9] = assay: Extracellular GSH transport, Transwell Studies (Table 3); format: cell-based
# [10] = 2 h, read-out: Intracellular GSH levels, % compared to control
# [11] = 4 h, read-out: Intracellular GSH levels, % compared to control
# [12] = 24 hours treatment, read-out: Int. GSH % con.
# [13] = Homo sapiens, A549, 75 μM, read-out: LDH rel. % con.
# [14] = Homo sapiens, HL-60, 50 μM, read-out: LDH rel. % con.
# [15] = Homo sapiens, PC-3, 50 μM, read-out: LDH rel. % con.
SMILES,activity at 25 µM (A549 cells [1]; [10]) [%],activity at 25 µM (A549 cells [1]; [11]) [%],activity at 25 µM (A549 cells [1]; [12]) [%],activity at 25 µM (HL-60 cells [2]) [%],activity at 25 µM (PC-3 cells [3]) [%],"LDH release, % of control at 75 µM (A549 cells [4]; [13]) [%]","LDH release, % of control at 50 µM (HL-60 cells [5]; [14]) [%]",extracellular GSH levels (A549 cells [7]),"LDH release, % of control at 50 µM (PC-3 cells [6]; [15]) [%]",other results
"O=C(/C=C/c1ccccc1)c1ccccc1O [2′-HC, 2′-hydroxychalcone]",< 5,< 5,< 5,< 5,93,515,320,increased levels of GSH in the supernatants,–,"LDH release, % of control at 25 µM (PC-3 cells [6]; Homo sapiens, PC-3, 25 μM, read-out: LDH rel. % con.): 227%"
"COc1ccc2c(c1)c(CC(=O)O)c(C)n2C(=O)c1ccc(Cl)cc1 [Indomethacin, 1-(4-chlorobenzoyl)-5-methoxy-2-methyl-1H-indole-3-acetic acid, reference compound]",71.4 ± 2.8,7.8 ± 1.2,< 5,49,75,–,–,–,122,"activation at 100 µM (epithelial cells [8]; Epithelial cell, 100 μM, read-out: % Increase Over Control (extracellular GSH)): 235%; % Increase Over Control (extracellular GSH) (epithelial cells [9]; 100 μM): 136 ^a %; LDH release, % of control at 50 µM (A549 cells [4]; Homo sapiens, A549, 50 μM, read-out: LDH rel. % con.): 251%; LDH release, % of control at 25 µM (HL-60 cells [5]; Homo sapiens, HL-60, 25 μM, read-out: LDH rel. % con.): 126%"
COc1ccc(-c2coc3cc(O)cc(O)c3c2=O)cc1 [Biochanin A],–,–,–,–,–,–,–,–,–,"% Increase Over Control (extracellular GSH) (epithelial cells [8]; 50 μM): 133 ^c %; % Increase Over Control (extracellular GSH) (epithelial cells [9]; 50 μM): 174 ^a %; Intracellular GSH levels, % compared to control (A549 cells [1]; 4 h): 36.8 ± 0.9%; Int. GSH % con. (A549 cells [1]; 24 hours treatment): <5 % con.; Int. GSH % con. (HL-60 cells [2]; HL-60, 75 μM): 20 % con.; Int. GSH % con. (PC-3 cells [3]): 81 % con.; LDH rel. % con. (A549 cells [4]; A549, 75 μM): 230 % con.; LDH rel. % con. (HL-60 cells [5]; HL-60, 50 μM): 133 % con.; LDH rel. % con. (PC-3 cells [6]; PC-3, 50 μM): 127 % con."
O=C(/C=C/c1ccccc1)c1ccccc1 [Chalcone],48.5 ± 2.1,–,< 5,100,119,150,236,increased levels of GSH in the supernatants,229,–
